In brackets after ≈: the same amount, converted by molar mass.
The compounds below were run on Mycobacterium tuberculosis (assay: Antimycobacterial activity against Mycobacterium tuberculosis H37Rv by microplate alamar blue assay). Conditions: not given.
Format: functional

Row | Compound | MIC
1 | O=C1/C(=C/c2ccc(O)cc2)SC(=S)N1Cc1nc2ccccc2[nH]1 | 6.25 µg/mL (≈ 17 µM)

The compounds below were run on Mycobacterium tuberculosis (assay: Antimycobacterial activity against Mycobacterium tuberculosis H37Rv ATCC 27294 incubated for 5 days by microplate alamar blue assay). Conditions: H37Rv ATCC 27294, 120 h, time 5 day.
Format: functional

Row | Compound | MIC
2 | O=C(NN1C(=O)CSC1c1ccco1)c1ccncc1 (configuration not stated) | 1.25 µg/mL (≈ 4.32 µM)
3 | COc1ccc(C2SCC(=O)N2NC(=O)c2ccncc2)cc1 (configuration not stated) | 1.25 µg/mL (≈ 3.79 µM)
4 | CN(C)c1ccc(C2SCC(=O)N2NC(=O)c2ccncc2)cc1 (configuration not stated) | 5 µg/mL (≈ 14.6 µM)
5 | O=C(NN1C(=O)CSC1c1ccccc1O)c1ccncc1 (configuration not stated) | 0.62 µg/mL (≈ 1.97 µM)
6 | O=C(NN1C(=O)CSC1c1ccc([N+](=O)[O-])cc1)c1ccncc1 (configuration not stated) | 3.12 µg/mL (≈ 9.06 µM)
7 | COc1cc(C2SCC(=O)N2NC(=O)c2ccncc2)ccc1O (configuration not stated) | 0.31 µg/mL (≈ 0.898 µM)

These compounds were tested on Mycobacterium tuberculosis (assay: Antimycobacterial activity against Mycobacterium tuberculosis H37Rv incubated for 5 days by microplate alamar blue assay). Conditions: 120 h, time 5 day.
Format: functional

Row | Compound | MIC
8 | Cc1ccc(NN2C(=O)CSC2c2ccc(-n3ccnc3)cc2)cc1 (configuration not stated) | 14.3 µM
9 | O=C1CSC(c2c(-c3ccccc3)[nH]c3ccccc23)N1c1nc(-c2ccccc2)cs1 (configuration not stated) | 50 µg/mL
10 | Nc1ccc([N+](=O)[O-])cc1N1C(=O)/C(=C/c2ccccc2)SC1=S | 12.5 µg/mL
11 | O=C1NC(=S)S/C1=C\c1ccc[nH]1 | 0.2 µg/mL
12 | COc1ccc(/C=C2\SC(=S)N(c3ccc(N)cc3)C2=O)cc1 | 12.5 µg/mL
13 | COc1ccc(/C=C2\SC(=S)NC2=O)cc1 | 0.1 µg/mL
14 | O=C1NC(=S)S/C1=C\c1cccc([N+](=O)[O-])c1 | 0.05 µg/mL
15 | O=C(NN1C(=O)CSC1c1c(-c2ccccc2)[nH]c2ccccc12)c1[nH]c2ccc(Cl)cc2c1-c1ccccc1 (configuration not stated) | 12.5 µg/mL
16 | O=C1CSC(c2ccc(-n3cncn3)cc2)N1Nc1ccccc1 (configuration not stated) | 14.3 µM
17 | COc1ccc(/C=C2\SC(=S)N(c3cc([N+](=O)[O-])ccc3N)C2=O)cc1 | 12.5 µg/mL
18 | O=C1CSC(c2c(-c3ccccc3)[nH]c3ccccc23)N1c1nc(-c2ccc(Cl)cc2)cs1 (configuration not stated) | 50 µg/mL
19 | CN(C)c1ccc(/C=C2\SC(=S)N(c3ccc(C=O)cc3)C2=O)cc1 | 12.5 µg/mL
20 | O=C1CSC(c2ccc(-n3ccnc3)cc2)N1Nc1ccccc1 (configuration not stated) | 14.3 µM

These compounds were tested on Mycobacterium tuberculosis (assay: Antimycobacterial activity against Mycobacterium tuberculosis H37Ra ATCC 25177 incubated for 7 days by microplate alamar blue assay). Conditions: H37Ra ATCC 25177, 168 h, time 7 day.
Format: functional

Row | Compound | MIC
21 | COc1cc(/C=N/NC(=S)Nc2cccc(Cl)c2)ccc1OC(=O)CC1SC(=O)NC1=O (configuration not stated) | 2 µg/mL (≈ 4.06 µM)
22 | COc1cc(/C=N/NC(=S)Nc2ccccc2)ccc1OC(=O)/C=C1\SC(=O)NC1=O | 2 µg/mL (≈ 4.38 µM)
23 | COc1cc(/C=N/NC(=S)Nc2ccccc2)ccc1OC(=O)CC1SC(=O)NC1=O (configuration not stated) | 2 µg/mL (≈ 4.36 µM)
24 | O=C(CC1SC(=O)NC1=O)Oc1ccc(/C=N/NC(=S)Nc2ccc(Cl)cc2)cc1 (configuration not stated) | 2 µg/mL (≈ 4.32 µM)
25 | COc1cc(/C=N/NC(=S)Nc2cccc(Cl)c2)ccc1OC(=O)/C=C1\SC(=O)NC1=O | 2 µg/mL (≈ 4.07 µM)
26 | COc1cc(/C=N/NC(=S)Nc2ccc(Cl)cc2)ccc1OC(=O)CC1SC(=O)NC1=O (configuration not stated) | 2 µg/mL (≈ 4.06 µM)

Each compound was assayed on Mycobacterium tuberculosis (assay: Antimycobacterial activity against Mycobacterium tuberculosis H37Rv incubated for 7 days by microplate alamar blue assay). Conditions: 168 h, time 7 day.
Format: functional

Row | Compound | MIC
27 | Cc1ccc(C2SCC(=O)N2c2n[nH]c(=S)s2)cc1 (configuration not stated) | 12.5 µg/mL (≈ 40.4 µM)
28 | O=C1CSC(c2ccc(O)cc2)N1c1nnc(S)s1 (configuration not stated) | 12.5 µg/mL (≈ 40.1 µM)
29 | COc1ccc(C2SCC(=O)N2c2n[nH]c(=S)s2)cc1 (configuration not stated) | 6.25 µg/mL (≈ 19.2 µM)
30 | COc1ccc(C2SCC(=O)N2c2nnc(S)s2)cc1OC (configuration not stated) | 1.6 µg/mL (≈ 4.5 µM)

These compounds were tested on Mycobacterium tuberculosis (assay: Antimycobacterial activity against Mycobacterium tuberculosis H37Ra). Conditions: not given.
Format: functional

Row | Compound | MIC
31 | CCOC(=O)C(C(C)C)N1C(=O)C(C)SC1c1ccc2c(c1)c1ccccc1n2CC (configuration not stated) | 25 µg/mL (≈ 57 µM)
32 | Cc1ccc(/N=N/c2ccc(/C=C3\SC(=S)NC3=O)c(O)c2)cc1 | 95 µg/mL (≈ 267 µM)
33 | CCOC(=O)C(C(C)C)N1C(=O)C(C)SC1c1cccc(OC)c1O (configuration not stated) | 25 µg/mL (≈ 68 µM)
34 | Cc1ccccc1/N=N/c1ccc(/C=C2\SC(=S)NC2=O)c(O)c1 | 95 µg/mL (≈ 267 µM)
35 | O=C1NC(=S)S/C1=C\c1ccc(/N=N/c2ccccc2)cc1O | 95 µg/mL (≈ 278 µM)
36 | O=C1NC(=S)S/C1=C\c1c(O)ccc2ccccc12 | 95 µg/mL (≈ 331 µM)
37 | O=C1NC(=S)S/C1=C\c1ccccc1O | 95 µg/mL (≈ 400 µM)
38 | COc1ccc(/N=N/c2ccc(/C=C3\SC(=S)NC3=O)c(O)c2)cc1 | 95 µg/mL (≈ 256 µM)

What follows are compounds tested on Mycobacterium tuberculosis (assay: Antimycobacterial activity against Mycobacterium tuberculosis H37Rv assessed as bacterial inhibition at 25 ug/ml by microplate alamar blue assay relative to control). Conditions: not given.
Format: functional

Row | Compound | inhibition at 25 µg/mL
39 | CCCCCCCCCCCCN1C(=O)C(CC(=O)O)SC12CCN(C(=O)C(N)C(C)CC)CC2 (configuration not stated) | 97%
40 | CCCCCCCCCCCCN1C(=O)C(CC(=O)O)SC12CCN(C(=O)C(N)CCCCN)CC2 (configuration not stated) | 96%
41 | CCCCCCCCN1C(=O)CSC12CCCCC2 | 96%
42 | CCCCCCCCCCCCN1C(=O)C(CC(=O)O)SC12CCCCC2 (configuration not stated) | 97%
43 | CCCCCCCCCCCCN1C(=O)C(CC(=O)O)SC12CCCC2 (configuration not stated) | 97%
44 | CCCCCCCCCCCCN1C(=O)C(CC(=O)O)SC12CCCCCCCC2 (configuration not stated) | 96%
45 | CCCCCCCCCCCCN1C(=O)C(CC(=O)O)SC12CCC(C(C)(C)C)CC2 (configuration not stated) | 96%
46 | CCCCCCCCCCCCN1C(=O)C(CC(=O)O)SC12CCCCCC2 (configuration not stated) | 96%
47 | CCCCCCCCCCCCN1C(=O)C(CC(=O)O)SC12CCN(C(=O)OC(C)(C)C)CC2 (configuration not stated) | 96%
